Literature values, collected in patent US20190175510A1, “PHARMACEUTICAL MATRIX FORMULATIONS COMPRISING DIMETHYL FUMARATE” (BIOGEN MA INC., priority 2014, published 2019).
Structures can show the parent of a compound that is named as a salt.

Conditions: species not stated

half-life of MMF: approximately 1 hour
Compound: COC(=O)/C=C/C(=O)O [MMF, monomethyl fumarate]
